From patent US20260364101A1, “OLEUROPEIN IN THE MANAGEMENT OF CANCER” (FUNDACIÓN MIGUEL SERVET, priority 2023, published 2026)

Legend:
MDSCs = test: ex vivo differentiated MDSCs treated with compound, marker expression by flow cytometry (FIG. 1a); type: cell-based, mouse; conditions: BML-275 500 nM alone or with oleuropein 50 μM; MDSCs
Experimental: (§1) Immunosuppressive myeloid cell subsets resembling tumor-infiltrating subsets (g-MDSCs, m-MDSCs and TAMs) were differentiated from mouse bone marrow following published procedures using conditioning medium produced by LLC tumor cells stably expressing GMCSF and MCSF cells. g- and m-MDSCs were purified using the myeloid-derived suppressor cell isolation kit (Miltenyi Biotec, Bergisch, Germany) according to manufacturer's recommendations. MDSCs and TAMs were seeded with 500 nM BML-275 or 50 μM oleuropein and incubated for seven days.
(§2) Surface and intracellular staining were carried out as described before with the following fluorochrome-conjugated antibody clones: AF488 anti-CD49d (R1-2), PE anti-CD4 (GK1.5), APCanti-CD8(53-6.7), brilliant Violet 510™ anti-I-A/I-E (M5/114.15.2,PE/Cyanine7anti-Ly-6G (1A8), and APC anti-CD80 (16-10A1) (Biolegend), FITC anti-IL-12 (C15.6) and BV421 anti-IL-2 (JES6-5H4) (BD Bioscience), APC-Vio® 770 anti-Ly-6C (REA796), PE REAfinity™ anti-F4/80 (REA126), and APC anti-CD68 (REA886) (Miltenyi), PerCP-Cyanine5.5 Anti-Human/Mouse CD11b (M1/70) (Tonbo), and AF488 anti-IFNγ (Clone XMG1.2) (BD Pharmigen). For human cells, it was used the following fluorochrome-conjugated antibodies: PerCP-Cy5.5-anti-CD11b (integrina alfa M) (M1/70), Violet Fluor 450 anti-CD14 antibody (61D3) (Tonbo), PE anti-CD115 (CSF-1R) (9-4D2-1E4) (Biolegend), PE-Cy™7 anti-CD11c (Clone B-ly6) (BD Bioscience), and APC anti-HLA-DR (REA517) (Miltenyi).
(§3) Data were collected using the FACSCanto Flow Cytometer (BD Biosciences) for ex vivo and in vitro experiments at Navarrabiomed Biomedical Research Center and Cyroflex LX flow cytometer (Beckman Counter). Data were analyzed with Flowjo.

TAMs = test: ex vivo differentiated TAMs treated with compound, marker expression by flow cytometry (FIG. 1b); type: cell-based, mouse; conditions: BML-275 500 nM
Experimental: as §1, §2, §3

CD4 T cells [1] = test: mixed lymphocyte reaction (MLR) with MDSCs as stimulator cells (FIG. 1c,d); type: cell-based, mouse; conditions: treated MDSCs as stimulators; 5 days
Experimental: (§4) MLR were carried out following standard procedures. Briefly, 100,000 MDSCs or TAMs from C57BL/6 mice were co-cultured in 96-well plates with 100,000 lymphocytes from BALB/c mice. Co-cultured cells were treated with 50 µM oleuropein and compared with control vehicle. After 5 days, T-lymphocyte activation, differentiation and proliferation were assessed by flow cytometry. T-cell activation and proliferation markers (Ki-67) and pro-inflammatory cytokine production (IL-2 and IFNγ) were evaluated by flow cytometry in CD4 and CD8 T cells as described before.
as §2

CD4 T cells [2] = test: mixed lymphocyte reaction (MLR) with TAMs as stimulator cells (FIG. 1c,d); type: cell-based, mouse; conditions: treated TAMs as stimulators; 5 days
Experimental: as §4
as §2, with “For human cells, it was used the following fluorochrome-conjugated antibodies: PerCP-Cy5.5-anti-CD11b (integrina alfa M) (M1/70), Violet Fluor 450 anti-CD14 antibody (61D3) (Tonbo), PE anti-CD115 (CSF-1R) (9-4D2-1E4) (Biolegend), PE-Cy™7 anti-CD11c (Clone B-ly6) (BD Bioscience), and APC anti-HLA-DR (REA517) (Miltenyi).” left out

MDSC and CD3 T cells = conditions: related art; cited from earlier work

Structure (SMILES) | expression of CD49d (MDSCs) | CD68 (M1 marker) (TAMs; AMPK inhibition in TAMs) | cells co-expressing MHC-II and CD80 (TAMs; oleuropein 50 μM, TAMs) | CD4 T cell stimulation assessed by IFNγ and IL-2 production (CD4 T cells [1]) | CD4 T cell stimulation assessed by IFNγ and IL-2 production (CD4 T cells [2]) | effect on MDSC and CD3 T cells (MDSC and CD3 T cells)
c1cc(-c2cnn3cc(-c4ccc(OCCN5CCCCC5)cc4)cnc23)ccn1 [BML-275, reference compound] | reduced | increased | significant elevation | weaker | weaker | –
Nc1ccn([C@@H]2O[C@H](CO)[C@@H](O)C2(F)F)c(=O)n1 [gemcitabine] | – | – | – | – | – | simultaneously reduces the MDSC and the CD3 T cells
